Laboratory results reported in US20240208904A1, “CRYSTALLINE POTASSIUM SALT OF 1-ETHYL- N -((1,2,3,5,6,7-HEXAHYDRO- S -INDACEN-4-YL)CARBAMOYL)PIPERIDINE-4 -SULFONAMIDE” (Hoffmann-La Roche Inc., priority 2021, published 2024).
“Also recorded” adds a separate entry of the source.

Columns and labels:
[1] = for Limit solubilities after 48 h at 20° C.; measured by Q 1H NMR: 4-aminoindacene (level of hydrolytic precursor measured in solution): 50 mg/ml
Method: (§1) Crystalline 1-ethyl-N-((1,2,3,5,6,7-hexahydro-s-indacen-4-yl)carbamoyl)piperidine-4-sulfonamide salts (50 mg, 1 wt.) or crystalline 1-ethyl-N-((1,2,3,5,6,7-hexahydro-s-indacen-4-yl)carbamoyl)piperidine-4-sulfonamide free acid (as a control) (50 mg, 1 wt.) were stirred in purified water (1000 μl, 20 vol.) at 20° C. Limit solubilities (mg/ml) were determined after 48 hours at 20° C. measured by Q ^1H NMR (measured against an internal standard, 2,3,5,6-tetrachloronitrobenzene).

[2] = Solubility determinations: limit solubility in purified water by Q 1H NMR
Method: as §1

[3] = General assessment of polymorph solubility and stability to water/humidity; type: physicochemical
[4] = Water content / hygroscopicity of polymorphs; type: physicochemical
[5] = Competitive suspension equilibration of Form A and Form D in anhydrous acetonitrile; type: physicochemical; settings: versus Form D, 20° C. or 40° C., 96 hours
Method: Form A (50 mg, 1 wt.) and Form D (amounts see Table 16) were charged to a vial and anhydrous acetonitrile (1000 μl, 20 vol.) was added. The vials were stirred at 20° C. or 40° C.for 96 hours.

[6] = Mechanical grinding of Form A, XRPD analysis; type: physicochemical; settings: ground for 24 hours
Method: Form A (50.4 mg) was ground for 24 hours. The product was recovered and analysed by XRPD to determine if any phase changes had occurred.

Row | Structure (SMILES) | Limit solubilities after 48 h at 20° C.; measured by Q 1H NMR: Free acid form equivalent [1] | Limit solubilities after 48 h at 20° C.; measured by Q 1H NMR: 4-aminoindacene (level of hydrolytic precursor measured in solution) [1] | further results
1 | CCN1CCC(S(=O)(=O)NC(=O)Nc2c3c(cc4c2CCC4)CCC3)CC1 [Form 3A, 1-ethyl-N-((1,2,3,5,6,7-hexahydro-s-indacen-4-yl)carbamoyl)piperidine-4-sulfonamide] | 38.0 mg/mL | 0.0 mg/mL | –
2 | CCN1CCC(S(=O)(=O)NC(=O)Nc2c3c(cc4c2CCC4)CCC3)CC1 [Form 3B, 1-ethyl-N-((1,2,3,5,6,7-hexahydro-s-indacen-4-yl)carbamoyl)piperidine-4-sulfonamide] | 6.3 mg/mL | 0.0 mg/mL | –
3 | CCN1CCC(S(=O)(=O)NC(=O)Nc2c3c(cc4c2CCC4)CCC3)CC1 [Form 3C, 1-ethyl-N-((1,2,3,5,6,7-hexahydro-s-indacen-4-yl)carbamoyl)piperidine-4-sulfonamide] | 4.5 mg/mL | 2.6 mg/mL | –
4 | CCN1CCC(S(=O)(=O)NC(=O)Nc2c3c(cc4c2CCC4)CCC3)CC1 [Form 3D, 1-ethyl-N-((1,2,3,5,6,7-hexahydro-s-indacen-4-yl)carbamoyl)piperidine-4-sulfonamide] | – | – | solubility at 48 h ([2]; purified water, 20 °C, water, thermodynamic from solid, Limit solubilities after 48 h at 20° C., measured by Q 1H NMR: Free acid form equivalent, 50 mg in purified water 1000 μl (20 vol.), 20° C., 48 h): 3900 µg/mL; Observation at 18 hours ([2]; stirred in purified water (20 vol.) at 20° C., 18 hours): suspension
5 | CCN1CCC(S(=O)(=O)NC(=O)Nc2c3c(cc4c2CCC4)CCC3)CC1 [Form 3E, 1-ethyl-N-((1,2,3,5,6,7-hexahydro-s-indacen-4-yl)carbamoyl)piperidine-4-sulfonamide] | 3.3 mg/mL | 0.8 mg/mL | –
6 | CCN1CCC(S(=O)(=O)NC(=O)Nc2c3c(cc4c2CCC4)CCC3)CC1 [Form 3F, 1-ethyl-N-((1,2,3,5,6,7-hexahydro-s-indacen-4-yl)carbamoyl)piperidine-4-sulfonamide] | 2.1 mg/mL | 0.8 mg/mL | –
7 | CCN1CCC(S(=O)(=O)NC(=O)Nc2c3c(cc4c2CCC4)CCC3)CC1 [Form 3G, 1-ethyl-N-((1,2,3,5,6,7-hexahydro-s-indacen-4-yl)carbamoyl)piperidine-4-sulfonamide] | 1.5 mg/mL | 0.5 mg/mL | –
8 | CCN1CCC(S(=O)(=O)NC(=O)Nc2c3c(cc4c2CCC4)CCC3)CC1 [Form 3H, 1-ethyl-N-((1,2,3,5,6,7-hexahydro-s-indacen-4-yl)carbamoyl)piperidine-4-sulfonamide] | 0.6 mg/mL | 0.0 mg/mL | –
9 | CCN1CCC(S(=O)(=O)NC(=O)Nc2c3c(cc4c2CCC4)CCC3)CC1 [Form 3I, 1-ethyl-N-((1,2,3,5,6,7-hexahydro-s-indacen-4-yl)carbamoyl)piperidine-4-sulfonamide] | 0.3 mg/mL | 0.0 mg/mL | –
10 | CCN1CCC(S(=O)(=O)NC(=O)Nc2c3c(cc4c2CCC4)CCC3)CC1 [Form 3J, 1-ethyl-N-((1,2,3,5,6,7-hexahydro-s-indacen-4-yl)carbamoyl)piperidine-4-sulfonamide] | 0.0 mg/mL | 0.1 mg/mL | –
11 | CCN1CCC(S(=O)(=O)NC(=O)Nc2c3c(cc4c2CCC4)CCC3)CC1.[K] [Form A, 1-Ethyl-N-((1,2,3,5,6,7-hexahydro-s-indacen-4-yl)carbamoyl)piperidine-4-sulfonamide Monopotassium Form A] | – | – | Solubility (qualitative) [3]: good solubility; Hygroscopicity [4]: hygroscopic; Non-assimilated water observed ([4]; depends on preparation and storage conditions): up to 3%; Thermodynamic stability of polymorphic form [5]: more thermodynamically stable polymorphic form; also recorded: thermodynamically stable; Phase change after grinding (XRPD) [6]: no significant change of polymorphic form; also recorded: stable to prolonged grinding conditions
12 | CCN1CCC(S(=O)(=O)NC(=O)Nc2c3c(cc4c2CCC4)CCC3)CC1.[K] [Form D, 1-Ethyl-N-((1,2,3,5,6,7-hexahydro-s-indacen-4-yl)carbamoyl)piperidine-4-sulfonamide Monopotassium Form D] | – | – | Stability in the presence of water ([3]; water as solvent or co-solvent or humidity (such as >30% RH at 25° C.)): stable in the presence of water
